According to patent US9850283B2, “Macrocyclic inhibitors of the PD-1/PD-L1 and CD80(B7-1)/PD-L1 protein/protein interactions” (BRISTOL-MYERS SQUIBB COMPANY, priority 2013, dated 2017):
Like-named read-outs stand apart in the source and are kept apart here. Positions of bridges follow the written chain, without caps; N, C: chain ends. Non-standard residues stand in square brackets, D forms with d. Residues, ends and D or L forms follow the SMILES beside them. ξ: configuration not given here. Phe(3,4,5-F3) = N[C@@H](Cc1cc(F)c(F)c(F)c1)C(=O)O; Phe(3-CF3) = N[C@@H](Cc1cccc(C(F)(F)F)c1)C(=O)O; Phe(4-CH2NH2) = NCc1ccc(C[C@H](N)C(=O)O)cc1; Pro(4,4-F2) = O=C(O)[C@@H]1CC(F)(F)CN1; Pro(4R-NH2) = N[C@H]1CN[C@H](C(=O)O)C1; 2Nal = N[C@@H](Cc1ccc2ccccc2c1)C(=O)O; d(cisHyp) = O=C(O)[C@H]1C[C@@H](O)CN1; Bta = N[C@@H](Cc1csc2ccccc12)C(=O)O; cisHyp = O=C(O)[C@@H]1C[C@H](O)CN1; Hyp = O=C(O)[C@@H]1C[C@@H](O)CN1; NMeF = CN[C@@H](Cc1ccccc1)C(=O)O; dNMeE = CN[C@H](CCC(=O)O)C(=O)O; Ile(3ξ) = CCC(C)[C@H](N)C(=O)O; NMeL = CN[C@@H](CC(C)C)C(=O)O; NMeNle = CCCC[C@H](NC)C(=O)O; NMeA = CN[C@@H](C)C(=O)O; Dab = NCC[C@H](N)C(=O)O; Dap = NC[C@H](N)C(=O)O; Sar = CNCC(=O)O

What was measured:
Human PD-L1/PD-1 = molecular target: T1, Human PD-L1/PD-1 (Homo sapiens, UniProt Q9NZQ7); test: HTRF PD-1-Ig/PD-L1-His binding assay (human PD-L1); conditions: cluster symbol; read-out: HTRF IC50 cluster
T1 construct: made in house; host or cells: HEK293T
T1 sequence (Q9NZQ7 with tags, fused parts or gaps): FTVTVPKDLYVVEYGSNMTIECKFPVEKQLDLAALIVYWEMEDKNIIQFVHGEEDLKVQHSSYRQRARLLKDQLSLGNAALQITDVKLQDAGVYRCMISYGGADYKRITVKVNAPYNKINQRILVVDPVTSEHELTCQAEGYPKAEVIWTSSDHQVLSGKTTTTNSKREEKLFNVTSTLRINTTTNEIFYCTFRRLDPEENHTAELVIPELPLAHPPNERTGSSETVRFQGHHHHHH
Summary of the method: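 Ig- and His-fused extracellular PD-1/PD-L1 binding in BSA/Tween-20 dPBS. HTRF with Eu anti-Ig (1 nM final) and APC anti-His (20 nM final).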

[1] = molecular target: T2, LK35.2-hPD-L1 cells / PE-labeled PD-1-Ig (Homo sapiens, UniProt Q9NZQ7); test: LK35.2-hPD-L1 cell binding high-content screening assay; assay type: cell-based; conditions: cluster symbol, read-out: CBA IC50 cluster
T2 construct: expressed in transfected cells; host or cells: LK35.2 mouse B cell line
T2 sequence (Q9NZQ7 19-290): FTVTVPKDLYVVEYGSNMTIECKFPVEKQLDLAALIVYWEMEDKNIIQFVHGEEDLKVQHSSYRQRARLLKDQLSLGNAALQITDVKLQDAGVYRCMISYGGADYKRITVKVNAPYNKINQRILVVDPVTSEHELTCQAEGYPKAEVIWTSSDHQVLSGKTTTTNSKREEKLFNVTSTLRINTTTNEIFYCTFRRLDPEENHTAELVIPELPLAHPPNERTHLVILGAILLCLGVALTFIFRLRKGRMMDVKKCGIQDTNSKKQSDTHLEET
Summary of the method: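 Compound effect on PD-1/PD-L1 binding is measured by imaging cell-associated phycoerythrin signal. Human PD-1-Ig (PE on Ig tag, 1 nM final) is applied with compound to a murine B cell line overexpressing human PD-L1 for 1 h at 37 °C in serum-containing RPMI.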

[2] = cell binding assay, cell line not given
[3] = cell line of CBA not given (LK35.2-hPD-L1 or 293T-hPD-L1)

Row | Structure (SMILES) | IC50 (Human PD-L1/PD-1) | IC50 [1, 2] | IC50 [1, 3]
1 | CCCC[C@H]1C(=O)N(C)[C@@H](CCCC)C(=O)N[C@@H](CCCNC(=N)N)C(=O)N[C@H](C(=O)NCC(N)=O)CSCC(=O)N[C@@H](Cc2ccccc2)C(=O)N(C)[C@@H](C)C(=O)N[C@@H](CC(C)C)C(=O)N2CCC[C@H]2C(=O)N[C@@H](Cc2cnc[nH]2)C(=O)N[C@@H](CC(C)C)C(=O)N(C)CC(=O)N[C@@H](Cc2c[nH]c3ccccc23)C(=O)N[C@@H](CO)C(=O)N[C@@H](Cc2c[nH]c3ccccc23)C(=O)N1C [Example 1082] ({CH2CO}-F[NMeA]LPHL[Sar]WSW[NMeNle][NMeNle]RCG-NH2; thioether N-14) | > 30.5 nM |  | > 74.3 nM
2 | CCCC[C@H]1C(=O)N(C)CC(=O)N[C@@H](CC(=O)O)C(=O)N[C@@H](C(C)C)C(=O)N(C)[C@@H](Cc2ccccc2)C(=O)N[C@@H](Cc2ccc(O)cc2)C(=O)N(C)CC(=O)N[C@@H](Cc2c[nH]c3ccccc23)C(=O)N[C@H](C(=O)NCC(N)=O)CSCC(=O)N[C@@H](Cc2ccccc2)C(=O)N(C)[C@@H](Cc2ccccc2)C(=O)N1C [Example 3055] (HELM PEPTIDE1{[O=C(C[*:3])[*:2]].F.[meF].[CCCC[C@@H](C(=O)[*:2])N(C)[*:1]].[Sar].D.V.[meF].Y.[Sar].W.C.G.[am]}$PEPTIDE1,PEPTIDE1,1:R3-12:R3$$$V2.0) | > 30.5 nM |  | > 74.3 nM
3 | CCCC[C@H]1C(=O)N(C)CC(=O)N[C@@H](CN)C(=O)N[C@@H](C(C)C)C(=O)N(C)[C@@H](Cc2ccccc2)C(=O)N[C@@H](Cc2ccc(O)cc2)C(=O)N(C)CC(=O)N[C@@H](Cc2c[nH]c3ccccc23)C(=O)N[C@@H](Cc2ccc(O)cc2)C(=O)N[C@@H](CC(C)C)C(=O)N[C@H](C(=O)NCC(N)=O)CSCC(=O)N[C@@H](Cc2ccccc2)C(=O)N(C)[C@@H](Cc2ccccc2)C(=O)N1C [Example 3152] ({CH2CO}-F[NMeF][NMeNle][Sar][Dap]V[NMeF]Y[Sar]WYLCG-NH2; thioether N-13) | 6.76 to 30.3 nM |  | 4.78 to 72.9 nM
4 | CCCC[C@H]1C(=O)N(C)[C@@H](CCCC)C(=O)N[C@@H](CCCNC(=N)N)C(=O)N[C@H](C(=O)NCC(N)=O)CSCC(=O)N[C@@H](Cc2ccc(O)cc2)C(=O)N(C)[C@@H](C)C(=O)N[C@@H](CN)C(=O)N2CCC[C@H]2C(=O)N[C@@H](C)C(=O)N[C@@H](CC(C)C)C(=O)N2C[C@@H](O)C[C@H]2C(=O)N[C@@H](Cc2c[nH]c3ccccc23)C(=O)N[C@@H](CO)C(=O)N[C@@H](Cc2c[nH]c3ccccc23)C(=O)N1C [Example 1143] ({CH2CO}-Y[NMeA][Dap]PAL[cisHyp]WSW[NMeNle][NMeNle]RCG-NH2; thioether N-14) | > 30.5 nM |  | > 74.3 nM
5 | CCCC[C@H]1C(=O)N(C)CC(=O)N[C@@H](CC(=O)O)C(=O)N[C@@H](C(C)C)C(=O)N(C)[C@@H](Cc2ccccc2)C(=O)N[C@@H](Cc2ccc3ccccc3c2)C(=O)N(C)CC(=O)N[C@@H](Cc2c[nH]c3ccccc23)C(=O)N[C@@H](Cc2ccc(O)cc2)C(=O)N[C@@H](CC(C)C)C(=O)N[C@H](C(=O)NCC(N)=O)CSCC(=O)N[C@@H](Cc2ccccc2)C(=O)N(C)[C@@H](Cc2ccccc2)C(=O)N1C [Example 3535] ({CH2CO}-F[NMeF][NMeNle][Sar]DV[NMeF][2Nal][Sar]WYLCG-NH2; thioether N-13) | > 30.5 nM | 4.78 to 72.9 nM | 
6 | CCCC[C@H]1C(=O)N(C)[C@@H](CCCC)C(=O)N[C@@H](CCCNC(=N)N)C(=O)N[C@H](C(=O)NCC(N)=O)CSCC(=O)N[C@@H](Cc2ccccc2)C(=O)N(C)[C@@H](C)C(=O)N[C@@H](CC(N)=O)C(=O)N2CCC[C@H]2C(=O)N[C@@H](Cc2cnc[nH]2)C(=O)N[C@@H](CC(C)C)C(=O)N2CC(F)(F)C[C@H]2C(=O)N[C@@H](Cc2c[nH]c3ccccc23)C(=O)N[C@@H](CO)C(=O)N[C@@H](Cc2c[nH]c3ccccc23)C(=O)N1C [Example 1197] ({CH2CO}-F[NMeA]NPHL[Pro(4,4-F2)]WSW[NMeNle][NMeNle]RCG-NH2; thioether N-14) | 6.76 to 30.3 nM |  | 4.78 to 72.9 nM
7 | CCCC[C@H]1C(=O)N(C)CC(=O)N[C@@H](CC(=O)O)C(=O)N[C@@H]([C@@H](C)OC)C(=O)N(C)[C@@H](Cc2ccccc2)C(=O)N[C@@H](Cc2ccc(O)cc2)C(=O)N(C)CC(=O)N[C@@H](Cc2c[nH]c3ccccc23)C(=O)N[C@@H](Cc2ccc(O)cc2)C(=O)N[C@@H](CC(C)C)C(=O)N[C@H](C(=O)NCC(N)=O)CSCC(=O)N[C@@H](Cc2ccccc2)C(=O)N(C)[C@@H](Cc2ccccc2)C(=O)N1C [Example 3157] ({CH2CO}-F[NMeF][NMeNle][Sar]DT(Me)[NMeF]Y[Sar]WYLCG-NH2; thioether N-13) | 6.76 to 30.3 nM |  | 4.78 to 72.9 nM

Results, then the molecule that gave them:

Row | IC50 (Human PD-L1/PD-1) | IC50 [1, 2] | IC50 [1, 3] | Structure (SMILES)
8 | 6.76 to 30.3 nM | 0.158 to 4.71 nM |  | CCCC[C@H]1C(=O)N(C)[C@@H](CCCC)C(=O)N[C@@H](CCCNC(=N)N)C(=O)N[C@H](C(=O)NCC(N)=O)CSCC(=O)N[C@@H](Cc2ccc(O)cc2)C(=O)N(C)[C@@H](C)C(=O)N[C@@H](CC(N)=O)C(=O)N2CCC[C@H]2C(=O)N[C@@H](CN)C(=O)N[C@@H](CC(N)=O)C(=O)N2C[C@H](O)C[C@H]2C(=O)N[C@@H](Cc2c[nH]c3ccccc23)C(=O)N[C@@H](CO)C(=O)N[C@@H](Cc2csc3ccccc23)C(=O)N1C [Example 6028] ({CH2CO}-Y[NMeA]NP[Dap]N[Hyp]WS[Bta][NMeNle][NMeNle]RCG-NH2; thioether N-14)
9 | 6.76 to 30.3 nM |  | 0.158 to 4.71 nM | CCCC[C@H]1C(=O)N2CCC[C@@H]2C(=O)N[C@@H](CC(N)=O)C(=O)N[C@@H](C(C)C)C(=O)N(C)[C@@H](Cc2ccccc2)C(=O)N[C@@H](Cc2ccc(CN)cc2)C(=O)N2CCC[C@@H]2C(=O)N[C@@H](Cc2c[nH]c3ccccc23)C(=O)N[C@@H](Cc2ccc(O)cc2)C(=O)N[C@@H](CCCCN)C(=O)N[C@H](C(=O)NCC(N)=O)CSCC(=O)N[C@@H](Cc2cc(F)c(F)c(F)c2)C(=O)N(C)[C@@H](Cc2ccccc2)C(=O)N1C [Example 3198] ({CH2CO}-[Phe(3,4,5-F3)][NMeF][NMeNle][dP]NV[NMeF][Phe(4-CH2NH2)][dP]WYKCG-NH2; thioether N-13)
10 | 0.385 to 6.74 nM | 4.78 to 72.9 nM |  | CCCC[C@H]1C(=O)N(C)[C@@H](CCCC)C(=O)N[C@@H](CCCNC(=N)N)C(=O)N[C@H](C(=O)NCC(N)=O)CSCC(=O)N[C@@H](Cc2cccc(C(F)(F)F)c2)C(=O)N(C)[C@@H](C)C(=O)N[C@@H](CC(N)=O)C(=O)N2CCC[C@H]2C(=O)N[C@@H](CN)C(=O)N[C@@H](CC(C)C)C(=O)N2C[C@H](O)C[C@H]2C(=O)N[C@@H](Cc2c[nH]c3ccccc23)C(=O)N[C@@H](CO)C(=O)N[C@@H](Cc2c[nH]c3ccccc23)C(=O)N1C [Example 7034] ({CH2CO}-[Phe(3-CF3)][NMeA]NP[Dap]L[Hyp]WSW[NMeNle][NMeNle]RCG-NH2; thioether N-14)
11 | 6.76 to 30.3 nM | 4.78 to 72.9 nM |  | CCCC[C@H]1C(=O)N(C)[C@@H](CCCC)C(=O)N[C@@H](CCCNC(=N)N)C(=O)N[C@H](C(=O)NCC(N)=O)CSCC(=O)N[C@@H](Cc2ccccc2)C(=O)N(C)[C@@H](C)C(=O)N[C@@H](CC(N)=O)C(=O)N2CCC[C@H]2C(=O)N[C@@H](Cc2cnc[nH]2)C(=O)N[C@@H](C(C)CC)C(=O)N(C)CC(=O)N[C@@H](Cc2c[nH]c3ccccc23)C(=O)N[C@@H](CO)C(=O)N[C@@H](Cc2c[nH]c3ccccc23)C(=O)N1C (stereo partly shown) [Example 6011] ({CH2CO}-F[NMeA]NPH[Ile(3ξ)][Sar]WSW[NMeNle][NMeNle]RCG-NH2; thioether N-14)
12 | 0.385 to 6.74 nM |  | 0.158 to 4.71 nM | CCCC[C@H]1C(=O)N2C[C@H](O)C[C@@H]2C(=O)N2C[C@H](N)C[C@H]2C(=O)N[C@@H](C(C)C)C(=O)N(C)[C@@H](Cc2ccccc2)C(=O)N[C@@H](Cc2ccc(O)cc2)C(=O)N(C)[C@H](CCC(=O)O)C(=O)N[C@@H](Cc2c[nH]c3ccccc23)C(=O)N[C@@H](Cc2ccc(O)cc2)C(=O)N[C@@H](CC(C)C)C(=O)N[C@H](C(=O)NCC(N)=O)CSCC(=O)N[C@@H](Cc2cc(F)c(F)c(F)c2)C(=O)N(C)[C@@H](Cc2ccccc2)C(=O)N1C [Example 3197] ({CH2CO}-[Phe(3,4,5-F3)][NMeF][NMeNle][d(cisHyp)][Pro(4R-NH2)]V[NMeF]Y[dNMeE]WYLCG-NH2; thioether N-13)
13 | 0.385 to 6.74 nM | 4.78 to 72.9 nM |  | CCCC[C@H]1C(=O)N(C)[C@@H](CC(C)C)C(=O)N[C@@H](CN)C(=O)N[C@H](C(=O)NCC(N)=O)CSCC(=O)N[C@@H](Cc2ccc(O)cc2)C(=O)N(C)[C@@H](C)C(=O)N[C@@H](CC(N)=O)C(=O)N2CCC[C@H]2C(=O)N[C@@H](Cc2c[nH]cn2)C(=O)N[C@@H](CCC(=O)O)C(=O)N2C[C@H](O)C[C@H]2C(=O)N[C@@H](Cc2c[nH]c3ccccc23)C(=O)N[C@@H](CCN)C(=O)N[C@@H](Cc2c[nH]c3ccccc23)C(=O)N1C [Example 5141] ({CH2CO}-Y[NMeA]NPHE[Hyp]W[Dab]W[NMeNle][NMeL][Dap]CG-NH2; thioether N-14)
14 | 0.385 to 6.74 nM | 4.78 to 72.9 nM |  | CCCC[C@H]1C(=O)N(C)CC(=O)N[C@@H](CC(=O)O)C(=O)N[C@@H](C(C)C)C(=O)N(C)[C@@H](Cc2ccccc2)C(=O)N[C@@H](Cc2ccc(O)cc2)C(=O)N(C)[C@@H](CCC(=O)O)C(=O)N[C@@H](Cc2c[nH]c3ccccc23)C(=O)N[C@@H](Cc2ccc(O)cc2)C(=O)N[C@@H](CC(C)C)C(=O)N[C@H](C(=O)NCC(N)=O)CSCC(=O)N[C@@H](Cc2ccccc2)C(=O)N(C)[C@@H](Cc2ccccc2)C(=O)N1C [Example 3512] (HELM PEPTIDE1{[O=C(C[*:3])[*:2]].F.[meF].[CCCC[C@@H](C(=O)[*:2])N(C)[*:1]].[Sar].D.V.[meF].Y.[meE].W.Y.L.C.G.[am]}$PEPTIDE1,PEPTIDE1,1:R3-14:R3$$$V2.0)
